Measurements as given in patent publication US11912710B2 (UPPTHERA, INC., priority 2021, dated 2024).

Tests used:
Type in all cases: cell-based
[1] = system: NCI-H526 cell line; experiment: Cell viability assay for H526 cell line; conditions: Homo sapiens, NCI-H526, 120 h; H526 cells, 5 days, EZ-Cytox, 3000 nM to 0.46 nM
Procedure, shortened: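 NCI-H526 cells exposed to compounds for 5 days in a CO2 incubator; viability read as absorbance at 450 nm after 3 min plate shaking; IC50 derived from treatment response.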

[2] = system: MRC-5 cell line; experiment: Cell viability assay (cytotoxicity) for MRC-5 cell line; conditions: Homo sapiens, MRC5, 120 h; MRC-5 normal cell line, 5 days, EZ-Cytox, 10000 nM to 1.52 nM; read-out: Activity: IC50 value to MRC-5 cell line (Exemplary Compounds)
Description: 4. Cell Viability Assay for MRC-5 Cell Line
(1) Culture of MRC-5 Cell Line
Passage of cultured cells was maintained within P15.
(2) Treatment of Compounds of the Present Invention
Then, it was cultured in 37° C.
(3) Cytotoxicity Experiment
CO2 incubator for 4 hours.
Cell Viability Assay for MRC-5 cell line

[3] = molecular target: T1, PLK1 (Homo sapiens, UniProt P53350); experiment: Luciferase assay for PLK1 in HeLa LgBit (Plk1-HiBit KI) cell line; conditions: 300 nM compound, luminescence after 9 hours, read-out: Activity: ratio of the luminescense value of compound treatment group to DMSO treatment group
T1 construct: endogenous in cells; host or cells: HeLa LgBit (Plk1-HiBit KI): HeLa cells stably expressing LgBit, with HiBit knocked into the endogenous Plk1 locus by CRISPR/Cas9
Procedure, shortened: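 HeLa cells stably expressing LgBit, with HiBit knocked in at the C-terminus of endogenous Plk1, released from a 24 h 2 mM thymidine block and grown 18 h. Endurazine added, then compound at 300 nM; luminescence tracked in real time, expressed as ratio to DMSO.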

T1 sequence (P53350 whole entry): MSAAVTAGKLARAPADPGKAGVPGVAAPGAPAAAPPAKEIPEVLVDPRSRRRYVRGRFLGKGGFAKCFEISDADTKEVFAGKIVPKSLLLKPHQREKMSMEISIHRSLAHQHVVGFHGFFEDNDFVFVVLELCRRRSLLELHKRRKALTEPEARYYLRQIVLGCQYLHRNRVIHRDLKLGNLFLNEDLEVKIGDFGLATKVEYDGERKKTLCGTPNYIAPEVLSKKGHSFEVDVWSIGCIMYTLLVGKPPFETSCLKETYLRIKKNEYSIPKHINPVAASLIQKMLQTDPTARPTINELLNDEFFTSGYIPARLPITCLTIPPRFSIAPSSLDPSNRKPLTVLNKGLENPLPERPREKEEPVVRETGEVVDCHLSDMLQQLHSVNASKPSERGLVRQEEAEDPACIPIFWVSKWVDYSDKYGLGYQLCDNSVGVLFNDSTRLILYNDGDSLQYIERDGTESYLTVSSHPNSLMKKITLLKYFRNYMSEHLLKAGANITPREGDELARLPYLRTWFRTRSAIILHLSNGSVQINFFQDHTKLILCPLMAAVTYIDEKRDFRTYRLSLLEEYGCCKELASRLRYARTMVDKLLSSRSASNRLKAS

remaining activity at 0.3 µM [3] | SMILES | IC50 [1] | IC50 [2]
< 60% | COc1cc(C(=O)NC2CCN(C(=O)CCN3CCN(c4cccc(C5CCC(=O)NC5=O)n4)CC3)CC2)ccc1Nc1ncc2c(n1)N(C1CCCC1)CC(F)(F)C(=O)N2C (stereo not drawn) [Compound 36, 4-((9-cyclopentyl-7,7-difluoro-5-methyl-6-oxo-6,7,8,9-tetrahydro-5H-pyrimido[4,5-b][1,4]diazepin-2-yl)amino)-N-(1-(3-(4-(6-(2,6-dioxopiperidin-3-yl)pyridin-2-yl)piperazin-1-yl)propanoyl)piperidin-4-yl)-3-methoxybenzamide] | < 0.03 µM | > 10 µM
< 60% | COc1cc(C(=O)NC2CCN(C(=O)CCN3CCN(c4ccnc(C5CCC(=O)NC5=O)c4)CC3)CC2)ccc1Nc1ncc2c(n1)N(C1CCCC1)CC(F)(F)C(=O)N2C (stereo not drawn) [Compound 37, 4-((9-cyclopentyl-7,7-difluoro-5-methyl-6-oxo-6,7,8,9-tetrahydro-5H-pyrimido[4,5-b][1,4]diazepin-2-yl)amino)-N-(1-(3-(4-(2-(2,6-dioxopiperidin-3-yl)pyridin-4-yl)piperazin-1-yl)propanoyl)piperidin-4-yl)-3-methoxybenzamide] | < 0.05 µM | > 10 µM
< 60% | COc1cc(C(=O)NC2CC3(CCN(CC4CCN(c5ccc(C6CCC(=O)NC6=O)nc5)CC4)CC3)C2)ccc1Nc1ncc2c(n1)N(C1CCCC1)CC(F)(F)C(=O)N2C (stereo not drawn) [Compound 39, 4-((9-cyclopentyl-7,7-difluoro-5-methyl-6-oxo-6,7,8,9-tetrahydro-5H-pyrimido[4,5-b][1,4]diazepin-2-yl)amino)-N-(7-((1-(6-(2,6-dioxopiperidin-3-yl)pyridin-3-yl)piperidin-4-yl)methyl)-7-azaspiro[3.5]nonan-2-yl)-3-methoxybenzamide] | < 0.03 µM | > 10 µM
< 60% | COc1cc(C(=O)NC2CC3(CCN(CCC4CCN(c5ccc(C6CCC(=O)NC6=O)cc5F)CC4)CC3)C2)ccc1Nc1ncc2c(n1)N(C1CCCC1)CC(F)(F)C(=O)N2C (stereo not drawn) [Compound 45, 4-((9-cyclopentyl-7,7-difluoro-5-methyl-6-oxo-6,7,8,9-tetrahydro-5H-pyrimido[4,5-b][1,4]diazepin-2-yl)amino)-N-(7-(2-(1-(4-(2,6-dioxopiperidin-3-yl)-2-fluorophenyl)piperidin-4-yl)ethyl)-7-azaspiro[3.5]nonan-2-yl)-3-methoxybenzamide] | < 0.03 µM | 8.68 µM
